The values that follow come from patent publication US20260027179A1, “ANTI-SYNUCLEINOPATHY PEPTIDE AND METHODS TO TREAT NEURODEGENERATIVE DISEASES” (University of British Columbia, priority 2021, published 2026).

In this assay the test system is HSP90. The experiment in a line: HSP90 level in cortical cultures, immunoblot. It is filed as cell-based, rat. The note with it: 50 μM, 24 hrs. As for the experimental part: Primary rat neuron cultures were prepared from embryos of pregnant Sprague-Dawley rats (E18). The experimental protocol was approved by the University of British Columbia Animal Care Committee. Briefly, the cortical tissue or ventral midbrain tissue was isolated into ice cold HBSS (Invitrogen, 14170-112) and then digested with 0.25% trypsin-EDTA at 37° C. for 30 min. After washing with warm DMEM (supplemented with 10% FBS) three times, neurons were suspended in neuron culture media and dissociated by trituration using varying sizes of pipettes. Neurons were then centrifuged, and the pellet was re-suspended in culture media, washed twice with culture media, and plated on the poly-D-lysine-coated plates. Neuron culture was maintained in the 37° C. incubator with 95% O2 and 5% CO2. The morning after culturing, 2/3 of the neuron culture media was replaced with fresh neuron culture media. Media was then replaced every 3-4 days. […]
Brain tissues or cultured cells were lysed on ice in the lysis buffer and then the solution was centrifuged at 14,000 rpm for 10 min at 4° C. Next, the supernatant was collected and protein concentrations were determined using a BCA protein assay kit (Thermo Scientific, 23227). […] The band density of each protein was quantified by the Bio-Rad Quantity One software and the relative optical density was analyzed relative to the loading control β-actin on the same membrane.
(In western blotting, separated proteins are transferred to a membrane and probed.)

As for “YGRKKRRQRRRRTKSGVYLVGRRRG (The sequence is synthesized (YGRKKRRQRRRRTKSGVYLVGRRRG)) [Tat-βsyn-degron]”, the “expression level of HSP90” value is recorded as “did not affect the expression levels”.
